Experimental findings from patent publication US20230276803A1, “A PESTICIDALLY ACTIVE MIXTURE COMPRISING THIETANYLOXY COMPOUND, OXIDES OR SALTS THEREOF” (PI INDUSTRIES LTD., priority 2020, published 2023) are described below.

Holding throughout (assay type): in vivo
For test [1], the system named is Helicoverpa armigera. In words: Diet incorporation method against Helicoverpa armigera (Example A). The following applies: Helicoverpa armigera, 96 h, read-out: Observed Efficacy (%). The text has this:
(§1) In which E represents the expected percentage of inhibition of the pests for the combination of two insecticides or one insecticide and one fungicide at defined doses (for example equal to x and y respectively), x is the percentage of inhibition observed for the pest/disease by the compound (1) at a given dose (equal to x), y is the percentage of inhibition observed for the pest/disease by the compound (2) or (3) at a defined dose (equal to y). When the percentage of inhibition observed for the combination is greater than E, there is a synergistic effect.
The diet incorporation method was used, in which semi-synthetic diet was incorporated into the test solutions consisting either of the single compounds or respective compound combinations, when the temperature was approximately 50° C. in the bio-assay containers, then stirred thoroughly for proper mixing and allowed to cool for 30 min. The solidified diet was cut into equal pieces, and then each piece was transferred into one cell of a bio-assay tray. A single starved third instar larva was released into each of these cells of the bio-assay trays and the tray was covered with a lid. The bio-assay trays were kept under laboratory conditions at a temperature of 25° C. and relative humidity of 70%. Observations on dead, moribund and live larvae were recorded 96 h after the release of the larvae. Percent mortality was calculated by combining dead and moribund larvae and comparing the result to the one of the untreated control. The results are shown for the compound of formula (I-1) in Table A.

Test [2] relates to Spodoptera litura. In words: Diet incorporation method against Spodoptera litura (Example B). The note with it: 96 h.
Source text: as §1
The diet incorporation method was used, in which semi-synthetic diet was incorporated into the test solution consisting either of the single compound or respective compound combinations, when the temperature was approximately 50° C. in the bioassay containers, then stirred thoroughly for proper mixing and allowed to cool for 30 min. The solidified diet was cut into equal pieces, and then each piece was transferred into one cell of the bio-assay trays. A single starved third instar larva was released into each of these cells of the bio-assay trays and the tray was covered with a lid. The bio-assay trays were kept under laboratory conditions at a temperature of 25° C. and relative humidity of 70%. Observations on dead, moribund and live larvae were recorded 96 h after the release. Percent mortality was calculated by combining dead and moribund larvae and comparing the result with the one of the untreated control. The results are shown for the compound of formula (I-1) in Table B.

In test [3] the test system is Helicoverpa armigera. In words: Leaf dip method (tomato leaves), Bacillus thuringiensis mixture against Helicoverpa armigera (Example D). The note with it: 0.1 ppm; 72 h.
Source text: as §1
(§2) The leaf dip method was used, wherein the required quantity of the compounds were weighed and dissolved in a test solution prepared in tubes. The tubes were put on a vortex at 2000 rpm for 90 min for proper mixing and then, for the single compounds, diluted with a 0.01% Triton-X solution, for the combinations, diluted with a 0.01% Triton-X solution containing formulated Bt, to get the desired test concentrations. Tomato leaves were dipped in the solution for 10 seconds, shade dried for 20 min and then transferred to single cells of the bioassay trays. […] Observations on dead, moribund and live larvae were recorded at 72 h after the release. Percent mortality was calculated by combining dead and moribund larvae and comparing the result to the one of the untreated control. […]

The test system of test [4] is Spodoptera litura. The test is described as follows: Leaf dip method (tomato leaves), Bacillus thuringiensis mixture against Spodoptera litura (Example E). The note with it: 0.1 ppm; 72 h.
Source text: as §1
as §2, with “concentration.” for “concentrations.”, “results” for “result”

A further test concerns Alternaria solani. The test is described as follows: Preventive glasshouse test against Alternaria solani in tomato (Example G). The note with it: preventive spray.
Source text: as §1
The single compounds or respective compound combinations were dissolved in 2% dimethyl sulfoxide/acetone and then mixed with water containing emulsifier to a calibrated spray volume of 50 mL. The test solutions were poured into spray bottles for further applications.
To test the preventive activity, healthy young tomato plants, raised in the greenhouse, were sprayed with the active compound preparation at the stated application rates inside the spray cabinets using hollow cone nozzles. One day after treatment, the plants were inoculated with a spore suspension containing 0.24×10^6 Alternaria solani inoculum and 2% Malt. The inoculated plants were then kept in a greenhouse chamber at a temperature of 22-24° C. and 90-95% relative humidity for disease expression.
A visual assessment of the performance of the single compounds or compound combinations was carried out by rating the disease severity (0-100% scale) on treated plants 3, 7, 10 and 15 days after application. Efficacy (% control) of the single compounds and mixtures was calculated by comparing the disease rating in the treatment with the one of the untreated control. The compounds were also assessed for their plant compatibility by recording symptoms like necrosis, chlorosis and stunting. The results have been described for the compound of formula (I-1) in Table G.

A further test relates to Phakopsora pachyrhizi. In words: Preventive glasshouse test against Phakopsora pachyrhizi in soybean (Example H). The note with it: preventive spray.
Source text: as §1
The single compounds or the respective compound combinations were dissolved in 2% dimethyl sulfoxide/acetone and then mixed with water containing an emulsifier to a calibrated spray volume of 50 ml. The test solutions were poured into spray bottles for further applications.
To test the preventive activity of compounds, healthy young Soybean plants, raised in the greenhouse, were sprayed with the active compound preparation at the stated application rates inside the spray cabinets using hollow cone nozzles. One day after treatment, the plants were inoculated with a suspension containing 2×10^5 Phakopsora pachyrhizi conidia. The inoculated plants were then kept in a greenhouse chamber at a temperature of 22-24° C. and 80-90% relative humidity for disease expression.
A visual assessment of the performance of the single compounds and respective compound combinations was carried out by rating the disease severity (0-100% scale) on treated plants 3, 7, 10 and 15 days after application. Efficacy (% control) of the compounds was calculated by comparing the disease rating in the treatment with the one of the untreated control. The compounds were also assessed for their plant compatibility by recording symptoms like necrosis, chlorosis and stunting. The results have been described for the compound of formula (I-1) in Table H.

The next test relates to Pyricularia oryzae. The following applies: 500 ppm; preventive spray, rice.

As for `Cc1cc(Cl)cc(C(=O)NC(C)(C)C)c1NC(=O)c1cc(OC2CS(=O)(=O)C2)nn1-c1ncccc1Cl` [Compound (I-1), N-(2-(tert-butylcarbamoyl)-4-chloro-6-methylphenyl)-1-(3-chloropyridin-2-yl)-3-((1,1-dioxidothietan-3-yl)oxy)-1H-pyrazole-5-carboxamide], the pest or weed control at 0.1 ppm in the test on Helicoverpa armigera [1] (0.1 ppm) is 12.5%. In the test on Helicoverpa armigera [1] (0.41 ppm), the pest or weed control at 0.41 ppm came out at 50%. Moreover, the pest or weed control at 1 ppm is 25% with Helicoverpa armigera [1] (1 ppm) and 25% with Spodoptera litura [2] (read-out: Observed Efficacy (%), 1 ppm). Also, the pest or weed control at 0.32 ppm in the test with Spodoptera litura [2] (read-out: Observed Efficacy (%), 0.32 ppm) amounted to 37.5%. The “Observed Efficacy (%)” value in the test with Helicoverpa armigera [3] was determined as 12.5%; in the test on Spodoptera litura [4], 0%; with Alternaria solani (100 ppm), 14%; in the test on Alternaria solani (500 ppm), 16%; in the test with Phakopsora pachyrhizi (100 ppm) it was 44%; in the test on Phakopsora pachyrhizi (500 ppm), 47%. Moreover, in the test with Pyricularia oryzae, the “Observed Efficacy (%)” value stood at 38%.
